Patent publication US7250413B2, “C-25 carbamate rifamycin derivatives with activity against drug-resistant microbes” (Cumbre Pharmaceuticals Inc., priority 2004, dated 2007)
In brackets after ≈: the same amount, converted by molar mass. One block for each compound: values may come before it.

How the values were obtained:
Assay in all cases: MIC, microbroth dilution
Assay type in all cases: cell-based
[1] = tested on: Mycobacterium smegmatis ATCC700084; conditions: Mycolicibacterium smegmatis, ATCC700084; rifS; Middlebrook Broth plus ADC Enrichment, 37° C.; read-out: MIC
Procedure: (§1) Representative compounds were assayed for antimicrobial activity as follows: Minimum Inhibitory Concentrations (“MICs”) were determined by the microbroth dilution method as per NCCLS guidelines (National Committee for Clinical Laboratory Standards, 2000), except that all growth incubations were conducted at 37° C. Bacterial cultures were tested in the following bacteriological media: S. aureus, S. epidermidis, and E. coli in Cation-Adjusted Mueller-Hinton Broth, S. pneumoniae in THY Broth supplemented with 1 mg/mL catalase under 5% CO2 atmosphere, S. pyogenes in THY Broth, E. faecalis in BHI Broth, H. influenzae in BHI Broth supplemented with 0.75 μL of 1 mg/mL NAD and 150 μL of 1 mg/ml hematin per 5 mL, and M smegmatis in Middlebrook Broth plus ADC Enrichment.

[2] = tested on: Enterococcus faecalis ATCC29212; conditions: rifS, BHI Broth, 37° C., read-out: MIC
Procedure: as §1

[3] = tested on: Staphylococcus aureus ATCC29213; conditions: rifS, Cation-Adjusted Mueller-Hinton Broth, 37° C., read-out: MIC
Procedure: as §1

Compound: CO[C@H]1/C=C/O[C@@]2(C)Oc3c(C)c(O)c4c(c3C2=O)C(=O)C(N2CCOCC2)=C(NC(=O)/C(C)=C\C=C\[C@H](C)[C@H](O)[C@@H](C)[C@@H](O)[C@@H](C)[C@H](OC(=O)N2CCN(CCNc3ccc(C(=NO)Nc5ccccc5)cc3C(F)(F)F)CC2)[C@@H]1C)C4=O [Example 49, 25-O-Desacetyl-(carbonyl-N-hydroxy-N′-phenyl-4-(2-piperazin-1-yl-ethylamino)-3-trifluoromethyl-benzamidine) 3-morpholino rifamycin S]
MIC [1]: 0.063 to 31 µg/mL
MIC [2]: 0.25 to 62 µg/mL (≈ 0.213 to 52.9 µM)
MIC [3]: 0.002 to 1.95 µg/mL (≈ 0.00171 to 1.66 µM)

Compound: CO[C@H]1/C=C/O[C@@]2(C)Oc3c(C)c(O)c4c(c3C2=O)C(=O)C(N2CCOCC2)=C(NC(=O)/C(C)=C\C=C\[C@H](C)[C@H](O)[C@@H](C)[C@@H](O)[C@@H](C)[C@H](OC(=O)NC2CCN(c3c(F)cc5c(=O)c(C(=O)O)cn(C6CC6)c5c3Cl)C2)[C@@H]1C)C4=O (stereo partly drawn) [Example 67, 25-O-Desacetyl-(carbonyl-N-7-(3-amino-pyrrolidin-1-yl)-8-chloro-1-cyclopropyl-6-fluoro-4-oxo-1,4-dihydro-quinoline-3-carboxylic acid) 3-morpholino rifamycin S]
MIC [1]: 0.063 to 31 µg/mL
MIC [2]: 0.25 to 62 µg/mL (≈ 0.221 to 54.8 µM)
MIC [3]: 0.002 to 1.95 µg/mL (≈ 0.00177 to 1.72 µM)

Compound: COc1c(N2CCN(C(=O)C3CN(C(=O)O[C@H]4[C@H](C)[C@H](O)[C@H](C)[C@@H](O)[C@@H](C)/C=C/C=C(/C)C(=O)NC5=C(N6CCOCC6)C(=O)c6c(c(O)c(C)c7c6C(=O)[C@@](C)(O/C=C/[C@H](OC)[C@H]4C)O7)C5=O)C3)C(C)C2)c(F)cc2c(=O)c(C(=O)O)cn(C3CC3)c12 (stereo partly drawn) [Example 65]
MIC [1]: 0.063 to 31 µg/mL
MIC [2]: 0.25 to 62 µg/mL (≈ 0.204 to 50.7 µM)
MIC [3]: 0.002 to 1.95 µg/mL (≈ 0.00163 to 1.59 µM)

Compound: CO[C@H]1/C=C/O[C@@]2(C)Oc3c(C)c(O)c4c(c3C2=O)C(=O)C(N2CCOCC2)=C(NC(=O)/C(C)=C\C=C\[C@H](C)[C@H](O)[C@@H](C)[C@@H](O)[C@@H](C)[C@H](OC(=O)N2CCN(c3ccc(C(=O)Nc5ccc6[nH]c(C)cc6c5)cc3C(F)(F)F)CC2)[C@@H]1C)C4=O [Example 51, 25-O-Desacetyl-(carbonyl-N-(2-methyl-1H-indol-5-yl)-4-piperazin-1-yl-3-trifluoromethyl-benzamide) 3-morpholino rifamycin S]
MIC [1]: 0.063 to 31 µg/mL
MIC [2]: 0.25 to 62 µg/mL (≈ 0.214 to 53.1 µM)
MIC [3]: 0.002 to 1.95 µg/mL (≈ 0.00171 to 1.67 µM)

Compound: Cc1cc2cc(NC(=O)c3ccc(N4CCNCC4)c(C(F)(F)F)c3)ccc2[nH]1 [Example 50, N-(2-Methyl-1H-indol-5-yl)-4-piperazin-1-yl-3-trifluoromethyl-benzamide]
MIC [1]: 0.063 to 31 µg/mL
MIC [2]: 0.25 to 62 µg/mL (≈ 0.621 to 154 µM)
MIC [3]: 0.002 to 1.95 µg/mL (≈ 0.00497 to 4.85 µM)

Compound: COc1c(N2CCN(C3CCN(C(=O)O[C@H]4[C@H](C)[C@H](O)[C@H](C)[C@@H](O)[C@@H](C)/C=C/C=C(/C)C(=O)NC5=C(N6CCOCC6)C(=O)c6c(c(O)c(C)c7c6C(=O)[C@@](C)(O/C=C/[C@H](OC)[C@H]4C)O7)C5=O)CC3)CC2)c(F)cc2c(=O)c(C(=O)O)cn(C3CC3)c12 [Example 60]
MIC [1]: 0.063 to 31 µg/mL
MIC [2]: 0.25 to 62 µg/mL (≈ 0.207 to 51.3 µM)
MIC [3]: 0.002 to 1.95 µg/mL (≈ 0.00165 to 1.61 µM)

Compound: CO[C@H]1/C=C/O[C@@]2(C)Oc3c(C)c(O)c4c(c3C2=O)C(=O)C(N2CCOCC2)=C(NC(=O)/C(C)=C\C=C\[C@H](C)[C@H](O)[C@@H](C)[C@@H](O)[C@@H](C)[C@H](OC(=O)NCc2cccc(C(F)(F)F)c2)[C@@H]1C)C4=O [Example 13, 25-O-Desacetyl-(carbonyl-1-(3-trifluoromethylbenzylamino)) 3-morpholino rifamycin S]
MIC [1]: 0.063 to 31 µg/mL
MIC [2]: 0.25 to 62 µg/mL (≈ 0.266 to 66 µM)
MIC [3]: 0.002 to 1.95 µg/mL (≈ 0.00213 to 2.07 µM)

Compound: CO[C@H]1/C=C/O[C@@]2(C)Oc3c(C)c(O)c4c(c3C2=O)C(=O)C(N2CCOCC2)=C(NC(=O)/C(C)=C\C=C\[C@H](C)[C@@H]2OC(C)(C)O[C@@H]([C@@H](C)[C@H](OC(=O)n3ccnc3)[C@@H]1C)[C@@H]2C)C4=O [Example 4]
MIC [1]: 0.063 to 31 µg/mL
MIC [2]: 0.25 to 62 µg/mL (≈ 0.286 to 71 µM)
MIC [3]: 0.002 to 1.95 µg/mL (≈ 0.00229 to 2.23 µM)

Further lines, results first:

MIC [1]: 0.063 to 31 µg/mL
MIC [2]: 0.25 to 62 µg/mL (≈ 0.218 to 54.1 µM)
MIC [3]: 0.002 to 1.95 µg/mL (≈ 0.00175 to 1.7 µM)
Compound: COc1cncc(NC(=O)c2ccc(N3CCN(C(=O)O[C@H]4[C@H](C)[C@H](O)[C@H](C)[C@@H](O)[C@@H](C)/C=C/C=C(/C)C(=O)NC5=C(N6CCOCC6)C(=O)c6c(c(O)c(C)c7c6C(=O)[C@@](C)(O/C=C/[C@H](OC)[C@H]4C)O7)C5=O)CC3)c(C(F)(F)F)c2)c1 [Example 53, 25-O-Desacetyl-(carbonyl-N-(5-methoxy-pyridin-3-yl)-4-piperazin-1-yl-3-trifluoromethyl-benzamide) 3-morpholino rifamycin S]

MIC [1]: 0.063 to 31 µg/mL
MIC [2]: 0.25 to 62 µg/mL (≈ 0.289 to 71.7 µM)
MIC [3]: 0.002 to 1.95 µg/mL (≈ 0.00231 to 2.25 µM)
Compound: CO[C@H]1/C=C/O[C@@]2(C)Oc3c(C)c(O)c4c(c3C2=O)C(=O)C(N2CCOCC2)=C(NC(=O)/C(C)=C\C=C\[C@H](C)[C@H](O)[C@@H](C)[C@@H](O)[C@@H](C)[C@H](OC(=O)N2CCN(C)CC2)[C@@H]1C)C4=O [Example 6, 25-O-Desacetyl-(1-carbonyl-4-methyl-piperazine) 3-morpholino rifamycin S]

MIC [1]: 0.063 to 31 µg/mL
MIC [2]: 0.25 to 62 µg/mL (≈ 0.27 to 67 µM)
MIC [3]: 0.002 to 1.95 µg/mL (≈ 0.00216 to 2.11 µM)
Compound: CO[C@H]1/C=C/O[C@@]2(C)Oc3c(C)c(O)c4c(c3C2=O)C(=O)C(N2CCOCC2)=C(NC(=O)/C(C)=C\C=C\[C@H](C)[C@H](O)[C@@H](C)[C@@H](O)[C@@H](C)[C@H](OC(=O)NCC#Cc2cccc(CO)c2)[C@@H]1C)C4=O [Example 44, 25-O-Desacetyl-(carbonyl-[3-(3-amino-prop-1-ynyl)-phenyl]-methanol) 3-morpholino rifamycin S]

MIC [1]: 0.063 to 31 µg/mL
MIC [2]: 0.25 to 62 µg/mL (≈ 0.278 to 68.9 µM)
MIC [3]: 0.002 to 1.95 µg/mL (≈ 0.00222 to 2.17 µM)
Compound: CO[C@H]1/C=C/O[C@@]2(C)Oc3c(C)c(O)c4c(c3C2=O)C(=O)C(N2CCOCC2)=C(NC(=O)/C(C)=C\C=C\[C@H](C)[C@H](O)[C@@H](C)[C@@H](O)[C@@H](C)[C@H](OC(=O)NCCCc2ccccc2)[C@@H]1C)C4=O [Example 24, 25-O-Desacetyl-(carbonyl-3-phenylpropylamino) 3-morpholino rifamycin S]

MIC [1]: 0.063 to 31 µg/mL
MIC [2]: 0.25 to 62 µg/mL (≈ 0.273 to 67.6 µM)
MIC [3]: 0.002 to 1.95 µg/mL (≈ 0.00218 to 2.13 µM)
Compound: CO[C@H]1/C=C/O[C@@]2(C)Oc3c(C)c(O)c4c(c3C2=O)C(=O)C(N2CCOCC2)=C(NC(=O)/C(C)=C\C=C\[C@H](C)[C@H](O)[C@@H](C)[C@@H](O)[C@@H](C)[C@H](OC(=O)NCc2ccc([N+](=O)[O-])cc2)[C@@H]1C)C4=O [Example 40, 25-O-Desacetyl-(carbonyl-4-nitro-benzylamine) 3-morpholino rifamycin S]

MIC [1]: 0.063 to 31 µg/mL
MIC [2]: 0.25 to 62 µg/mL (≈ 0.275 to 68.3 µM)
MIC [3]: 0.002 to 1.95 µg/mL (≈ 0.0022 to 2.15 µM)
Compound: CO[C@H]1/C=C/O[C@@]2(C)Oc3c(C)c(O)c4c(c3C2=O)C(=O)C(N2CCOCC2)=C(NC(=O)/C(C)=C\C=C\[C@H](C)[C@H](O)[C@@H](C)[C@@H](O)[C@@H](C)[C@H](OC(=O)NCCN2CCN(C)CC2)[C@@H]1C)C4=O [Example 9, 25-O-Desacetyl-(1-carbonyl-2-(4-methyl-piperazin-1-yl)-ethylamine) 3-morpholino rifamycin S]

MIC [1]: 0.063 to 31 µg/mL
MIC [2]: 0.25 to 62 µg/mL (≈ 0.276 to 68.4 µM)
MIC [3]: 0.002 to 1.95 µg/mL (≈ 0.00221 to 2.15 µM)
Compound: CO[C@H]1/C=C/O[C@@]2(C)Oc3c(C)c(O)c4c(c3C2=O)C(=O)C(N2CCOCC2)=C(NC(=O)/C(C)=C\C=C\[C@H](C)[C@H](O)[C@@H](C)[C@@H](O)[C@@H](C)[C@H](OC(=O)NCc2cccc(Cl)c2)[C@@H]1C)C4=O [Example 39, 25-O-Desacetyl-(carbonyl-3-chloro-benzylamine) 3-morpholino rifamycin S]

MIC [1]: 0.063 to 31 µg/mL
MIC [2]: 0.25 to 62 µg/mL (≈ 0.28 to 69.5 µM)
MIC [3]: 0.002 to 1.95 µg/mL (≈ 0.00224 to 2.19 µM)
Compound: CO[C@H]1/C=C/O[C@@]2(C)Oc3c(C)c(O)c4c(c3C2=O)C(=O)C(N2CCOCC2)=C(NC(=O)/C(C)=C\C=C\[C@H](C)[C@H](O)[C@@H](C)[C@@H](O)[C@@H](C)[C@H](OC(=O)NCCc2cccs2)[C@@H]1C)C4=O [Example 19, 25-O-Desacetyl-(1-carbonyl-2-thiophen-2-yl-ethylamine) 3-morpholino rifamycin S]

MIC [1]: 0.063 to 31 µg/mL
MIC [2]: 0.25 to 62 µg/mL (≈ 0.265 to 65.6 µM)
MIC [3]: 0.002 to 1.95 µg/mL (≈ 0.00212 to 2.06 µM)
Compound: CO[C@H]1/C=C/O[C@@]2(C)Oc3c(C)c(O)c4c(c3C2=O)C(=O)C(N2CCOCC2)=C(NC(=O)/C(C)=C\C=C\[C@H](C)[C@H](O)[C@@H](C)[C@@H](O)[C@@H](C)[C@H](OC(=O)N2CCN(c3ccc(F)cc3)CC2)[C@@H]1C)C4=O [Example 12, 25-O-Desacetyl-(1-carbonyl-1-(4-fluorophenyl)-piperazine) 3-morpholino rifamycin S]

MIC [1]: 0.063 to 31 µg/mL
MIC [2]: 0.25 to 62 µg/mL (≈ 0.228 to 56.6 µM)
MIC [3]: 0.002 to 1.95 µg/mL (≈ 0.00182 to 1.78 µM)
Compound: CO[C@H]1/C=C/O[C@@]2(C)Oc3c(C)c(O)c4c(c3C2=O)C(=O)C(N2CCOCC2)=C(NC(=O)/C(C)=C\C=C\[C@H](C)[C@H](O)[C@@H](C)[C@@H](O)[C@@H](C)[C@H](OC(=O)N2CCN(c3cc5c(cc3F)c(=O)c(C(=O)O)cn5C3CC3)CC2)[C@@H]1C)C4=O [Example 16, 25-O-Desacetyl-(4-carbonyl-1-cyclopropyl-6-fluoro-4-oxo-7-piperazin-1-yl-1,4-dihydro-quinoline-3-carboxylic acid) 3-morpholino rifamycin S]
